Among the data in ChEMBL document CHEMBL1144786, “synthesis and biological evaluation of fully functionalized seco-pancratistatin analogues” (2008) are EC50 values, retold here.

Each structure is given as a SMILES string. Values after ≈ are worked out from the molar mass of the structure shown. Where only a bound is given, the exact number is not on record here.

Test [1] concerns P388. In words: Cytotoxicity against mouse P388 cells. Type of test: functional. The following applies: read-out: ED50 (the source's name).
Test [2] deals with MCF7. In words: Cytotoxicity against human MCF7 cells. The following applies: read-out: ED50 (the source's name). Type of test: functional.

Turning to `O=C1N[C@H]2C[C@H](O)[C@@H](O)C[C@@H]2c2cc3c(cc21)OCO3`, the EC50 in test [1] stood at 0.45 µg/mL (≈ 1.62 µM). Same read-out and setting: then `O=C1N[C@H]2[C@H](O)[C@H](O)CC[C@@H]2c2cc3c(cc21)OCO3`, with 1.39 µg/mL (≈ 5.01 µM). As for `CC1(C)O[C@@H]([C@H](O)[C@@H](CNC(=O)c2ccccc2)c2ccc3c(c2)OCO3)[C@H](CO)O1`, in test [2], the EC50 was more than 30 µg/mL. Consider `O=C(NC[C@@H](c1ccc2c(c1)OCO2)[C@@H](O)[C@H](O)[C@@H](O)CO)c1ccccc1`, for which the EC50 in test [2] is more than 30 µg/mL. For the compound `O=C1N[C@H]2[C@H](O)[C@H](O)[C@@H](O)[C@H](O)[C@@H]2c2cc3c(c(O)c21)OCO3` [PANCRATISTATIN], the EC50 in test [1] came out at 0.039 µg/mL (≈ 0.12 µM).
